{"source": "patent US20180186796A1", "about": "“COMPOUNDS AND USES THEREOF” (LEAD DISCOVERY SIENA S.R.L., priority 2014, published 2018)", "key": {"[1]": {"system": "U251 cells", "experiment": "Proliferation assay on U251 cells", "format": "cell-based, human", "description": "U87 and U251 cells were purchased from European Collection of Cell Cultures (ECACC, Salisbury, UK) and were cultured in DMEM medium supplemented with 10% Foetal Bovine Serum. In order to determine antiproliferative effect of drugs tumor cells were seeded at 2×10^5 cells/ml density and treated with compounds at indicated concentrations. The cultures were maintained at 37° C. in 5% v/v CO2 for 72 h. Cell number and viability were evaluated by Trypan blue exclusion test. Viable cells were expressed as percentage respect to cells treated with vehicle (=100%). Mean and SD values of at least three different experiments are shown.\nU87 and U251 cells were purchased from European Collection of Cell Cultures (ECACC, Salisbury, UK) and were cultured in DMEM medium supplemented with 10% Foetal Bovine Serum. In order to determine antiproliferative effect of drugs tumor cells were seeded at 2×10^5 cells/ml density and treated with compounds at indicated concentrations. The cultures were maintained at 37° C. in 5% v/v CO2 for 72 h. Cell number and viability were evaluated by Trypan blue exclusion test. Viable cells were expressed as percentage respect to untreated cells (=100%/). Mean and SD values of at least three different experiments are shown."}, "[2]": {"system": "U87 cells", "experiment": "Low density growth assay", "format": "cell-based, human", "conditions": "4Gy plus 1 μM or 10 μM Si306, 15 days", "description": "U87 cells capacity for growth at clonal density, was evaluated by plating cells at density of 10 cells/cm^2 in 10% fetal bovine supplemented DMEM. After 2 weeks of culture, adherent cells were fixed with cold methanol, washed with PBS/BSA and air-dried. Adherent cells were stained with 0.5% crystal violet for 15 minutes at room temperature. The stained colonies were photomicrographed and analyzed by number and size with the public domain software ImageJ (by Wayne Rasband, http://rsb.info.nih.gov/ij/). Mean and SD values of at least three different experiments are shown."}, "[3]": {"target": "T1, Recombinant human Src (Homo sapiens, UniProt P12931)", "T1 construct": "purchased Upstate (Lake Placid, N.Y.)", "T1 sequence (P12931 whole entry)": "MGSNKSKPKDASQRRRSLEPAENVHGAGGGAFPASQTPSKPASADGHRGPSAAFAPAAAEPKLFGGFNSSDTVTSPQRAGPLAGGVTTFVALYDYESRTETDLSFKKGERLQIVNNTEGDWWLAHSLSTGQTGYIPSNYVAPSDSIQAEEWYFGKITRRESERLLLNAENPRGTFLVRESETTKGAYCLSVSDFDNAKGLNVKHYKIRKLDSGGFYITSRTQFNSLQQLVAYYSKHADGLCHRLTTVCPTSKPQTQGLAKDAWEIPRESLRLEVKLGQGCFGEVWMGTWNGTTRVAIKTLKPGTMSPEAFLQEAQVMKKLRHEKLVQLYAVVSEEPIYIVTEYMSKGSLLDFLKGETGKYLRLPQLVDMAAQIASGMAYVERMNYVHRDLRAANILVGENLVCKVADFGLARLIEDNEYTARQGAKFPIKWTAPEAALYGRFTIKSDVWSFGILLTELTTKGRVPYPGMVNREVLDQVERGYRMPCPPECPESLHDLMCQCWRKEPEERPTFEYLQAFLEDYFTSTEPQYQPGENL", "experiment": "Enzymatic assay on isolated Src", "format": "biochemical", "quoted_text": "Recombinant human Src was purchased from Upstate (Lake Placid, N.Y.)."}, "[4]": {"system": "SH-SY5Y neuroblastoma cells", "experiment": "SH-SY5Y xenograft mouse model", "format": "in vivo, mice", "description": "Male CD1 nude mice (Charles River, Milan, Italy) were maintained under the guidelines established by the inventors' Institution (University of L'Aquila, Medical School and Science and Technology School Board Regulations, complying with the Italian government regulation n. 116 Jan. 27 1992 for the use of laboratory animals). Before any invasive manipulation, mice were anesthetized with a mixture of ketamine (25 mg/mL)/xylazine (5 mg/mL). Tumor grafts were obtained by injecting s.c. 1×10^6 SH-SY5Y cells in 100 μL of 12 mg/mL Matrigel (Becton Dickinson, Franklin Lakes, N.J., USA). Tumor growth was monitored daily by measuring the average tumor diameter. The tumor volume was expressed in mm^3 according to the formula 4/3πr^3."}, "[5]": {"system": "hBMEC endothelial cells", "experiment": "Sprouting assay", "format": "cell-based", "conditions": "0.5 μM and 1 μM, 24 h", "description": "The brain microvascular endothelial cell line hBMEC was purchased from ScienCell Research Laboratory (Carlsbad, Calif., USA). HBMEC cells were suspended in culture medium containing 20% methylcellulose, seeded at a density of 1000 cells/well, into nonadhesive 96 well plate and cultured at 37° C. (5% CO2, 100% humidity). Under these conditions, suspended endothelial cells (EC) form spontaneously within 4 h a single cell aggregate known as spheroid. Spheroids were harvested within 24 h and used for in gel sprouting angiogenesis experiments. Briefly, spheroids were seeded in micro-slides coated with Matrigel and images were observed after 24 h, captured by an inverted microscope and analysed with the NIH Image J analysis system. For statistical analysis, number of sprouts per spheroid, with a minimum of 10 spheroids for each treatment, was considered."}, "[6]": {"system": "human fibroblast wi38", "experiment": "TGF-beta induced myofibroblast differentiation, Western blot", "format": "cell-based", "conditions": "Si306 1 μM", "description": "FIG. 17. Western blot analysis of PDGFR-beta and alpha-SMA expression.\nTotal cell lysates were obtained by incubating cells in a lysis buffer containing 1% triton, 0.1% SDS, 2 mM CaCl2, 10 mg/ml orthovanadate, and 1× protease inhibitors cocktail (Sigma, St. Louis, […]., USA). Protein content was determined using the Protein Assay Kit 2 (Bio-Rad Laboratories, Hercules, Calif., USA). Sixty micrograms of proteins were electrophoresed in 10% SDS-polyacrylamide gel. After electrophoresis gels were placed onto Trans-Blot Turbo mini nitrocellulose transfer pack and transferred using Trans-Bolt Turbo Transfer System (Bio-Rad Laboratories, Hercules, Calif., USA). The membrane was incubated with 1 μg/ml primary antibody and then with appropriate horseradish peroxidase-conjugated secondary antibodies. Primary antibodies β-actin, PDGFR-beta, alpha-SMA were purchased from Cell Signaling Technology; Protein bands were visualized using a chemiluminescent detection system (Thermo Scientific, Rockford, Ill., USA) and signals were digitally acquired by Chemidoc XRS system (Bio-Rad Laboratories)."}, "[7]": {"experiment": "PAMPA, intestinal (GI) permeability", "conditions": "Membrane Retention, GI", "protocol": "Donor solution (0.5 mM) was prepared by diluting 1 mM dimethylsulfoxide (DMSO) compound stock solution using phosphate buffer (pH 7.4, 0.025 M). […] Donor solution (150 μL) was added to each well of the filter plate. To each well of the acceptor plate were added 300 μL of solution (50% DMSO in phosphate buffer). All compounds were tested in three different plates on different days. The sandwich was incubated for 5 h at room temperature under gentle shaking. After the incubation time, the plates were separated, and samples were taken from both receiver and donor sides and analyzed using LC with UV detection at 280 nm.\nPermeability (Papp) for PAMPA was calculated according to the following equation, obtained from Wohnsland and Faller^27 and Sugano et al.^28 equation with some modification in order to obtain permeability values in cm s^−1,\nDrug concentration is estimated by using the peak area integration. Membrane retentions (%) were calculated according to the following equation:\nwhere r is the ratio between drug concentration in the acceptor and equilibrium concentration, D, A, and Eq represented drug concentration in the donor, acceptor and equilibrium solution, respectively.\nDonor solution of tested compounds (0.5 mM) was prepared by diluting 1 mM dimethylsulfoxide (DMSO) compound stock solution using phosphate buffer (pH 7.4, 25 mM). […] Donor solution (150 μL) was added to each well of the filter plate. To each well of the acceptor plate were added 300 μL of solution (50% DMSO in phosphate buffer). Compounds was tested in three different plates on different days. The sandwich was incubated for 5 h at room temperature under gentle shaking.\nPermeability (Papp) for PAMPA was calculated according to the following equation, obtained from Wohnsland and Faller and Sugano et al.^27, 28.\nDrug concentration is estimated by using the peak area integration. Membrane retention (%) was calculated according to the following equation:"}, "[8]": {"target": "T2, Recombinant human Abl (Homo sapiens, UniProt P00519)", "T2 construct": "purchased Upstate", "T2 sequence (P00519 whole entry)": "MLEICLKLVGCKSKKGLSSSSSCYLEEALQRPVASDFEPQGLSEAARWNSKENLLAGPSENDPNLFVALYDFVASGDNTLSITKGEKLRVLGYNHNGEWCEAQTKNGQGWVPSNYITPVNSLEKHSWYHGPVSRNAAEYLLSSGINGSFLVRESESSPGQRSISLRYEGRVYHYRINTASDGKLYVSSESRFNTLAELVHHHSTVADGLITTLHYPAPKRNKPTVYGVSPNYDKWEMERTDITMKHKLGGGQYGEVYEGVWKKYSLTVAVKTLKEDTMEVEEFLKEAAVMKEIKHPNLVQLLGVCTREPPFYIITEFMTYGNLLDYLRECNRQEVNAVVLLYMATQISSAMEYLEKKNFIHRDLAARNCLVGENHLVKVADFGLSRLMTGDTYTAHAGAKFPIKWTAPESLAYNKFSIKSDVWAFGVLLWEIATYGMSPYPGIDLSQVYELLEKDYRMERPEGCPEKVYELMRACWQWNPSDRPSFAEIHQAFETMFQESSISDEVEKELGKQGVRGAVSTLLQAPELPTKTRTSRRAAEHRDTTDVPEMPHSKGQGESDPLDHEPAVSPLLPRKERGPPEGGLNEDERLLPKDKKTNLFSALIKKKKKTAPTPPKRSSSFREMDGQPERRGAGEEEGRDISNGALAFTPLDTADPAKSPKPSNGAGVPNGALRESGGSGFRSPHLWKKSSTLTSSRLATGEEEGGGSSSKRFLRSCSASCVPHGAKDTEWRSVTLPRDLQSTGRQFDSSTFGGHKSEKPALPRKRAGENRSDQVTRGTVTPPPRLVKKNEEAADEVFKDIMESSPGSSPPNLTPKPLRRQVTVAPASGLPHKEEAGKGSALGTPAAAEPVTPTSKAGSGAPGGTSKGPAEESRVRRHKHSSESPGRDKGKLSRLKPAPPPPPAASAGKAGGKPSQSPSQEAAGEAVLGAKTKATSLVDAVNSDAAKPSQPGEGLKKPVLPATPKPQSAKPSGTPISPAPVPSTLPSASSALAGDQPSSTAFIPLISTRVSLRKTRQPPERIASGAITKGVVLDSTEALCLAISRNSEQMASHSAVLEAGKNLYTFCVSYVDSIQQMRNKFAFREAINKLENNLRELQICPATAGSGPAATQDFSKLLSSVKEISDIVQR", "experiment": "Enzymatic assay on isolated Abl", "format": "biochemical", "conditions": "mean of at least two experiments", "protocol": "Recombinant human Abl was purchased from Upstate.\nActivity was measured in a filter binding assay using an Abl specific peptide substrate (Abtide, Upstate)."}, "[9]": {"system": "U87 cells", "experiment": "U87 xenograft", "format": "in vivo, mice", "description": "Male CD1 nude mice (Charles River, Milan, Italy) were maintained under the guidelines established by University of L'Aquila, Medical School and Science and Technology School Board Regulations, complying with the Italian government regulations for the use of laboratory animals. Before any invasive manipulation, mice were anesthetized with a mixture of ketamine (25 mg/ml)/xylazine (5 mg/ml). Tumor grafts were obtained by injecting s.c. 1×10^6 U87 cells in 100 μL of 12 mg/mL Matrigel (Becton Dickinson, Franklin Lakes, N.J., USA). Mice were divided in four groups: treated with vehicle, treated with radiotherapy, treated with Si306 and treated with Si306 in combination with radiotherapy. […] At the endpoint, tumors were recovered and weighted. The tumor xenograft was irradiated once with 4Gy dose at first sign of palpable tumor mass.\nAntibodies were purchased from Cell Signaling (Cell Signaling Technology, Inc.)."}, "[10]": {"experiment": "In vivo pharmacokinetics / biodistribution", "design": "species or system mice", "conditions": "administered compound itself, 50 mg/Kg i.p., BALB/C mice", "protocol": "The animal protocols used were reviewed and approved by the Animal Care and Ethics Committee of the Universita{grave over ( )} degli Studi di Siena, Italy. Male BALB/C mice (weight 20-30 g) were obtained from Charles River (Milan, Italy). […] The blood, previously heparinized, was centrifuged at 4000 rpm for 20 minutes to separate the plasma fraction and then 500 μl were collected in a test tube. […] Samples were centrifuged at 4000 rpm for 20 minutes, the supernatant was recovered, dried under vacuum and analyzed by LC-UV-MS. Brain was homogenized using a glass/glass Potter-Elvehjem homogenizer in presence of Tris-HCl buffer (50 mM) and compounds were recovered using 7 mL of ACN then treated as previously described for blood samples."}}, "note": "Where two headings read alike, the source gives them in different places.", "data": [{"smiles": "ClC(Cn1ncc2c(Nc3cccc(Br)c3)nc(SCCN3CCOCC3)nc21)c1ccccc1", "note": "(centres unmarked) [Si306, N-(3-Bromophenyl)-1-(2-chloro-2-phenylethyl)-6-[(2-morpholin-4-ylethyl)thio]-1H-pyrazolo[3,4-d]pyrimidin-4-amine]", "values": [{"measurement": "reduction of the total cell number vs control", "setting": "[1]; U251, 5 μM, 72 h", "result": "about 50%"}, {"measurement": "antiproliferative effect in combination with mitomycin C", "setting": "[1]; U251, 72 h, 1 μM Si306 plus increasing mitomycin C", "result": "synergic antiproliferative effect"}, {"measurement": "number of colonies, combination with radiotherapy", "setting": "[2]", "result": "reduced significantly the number of colonies"}, {"measurement": "Ki", "setting": "[3]; mean of at least two experiments, read-out: Enzymatic Data (Ki, μM) c-Src", "result": 0.13, "unit": "µM"}, {"measurement": "Ki", "setting": "[3]; read-out: Ki c-Src", "result": "~0.1", "unit": "µM"}, {"measurement": "tumour growth inhibition", "setting": "[4]; 50 mg/kg", "result": "significantly inhibited"}, {"measurement": "signs of distress or weight loss", "setting": "[4]; 50 mg/kg daily oral", "result": "did not shown signs of distress or weight loss"}, {"measurement": "reduction in mean tumor volume compared to placebo", "setting": "[4]; 50 mg/kg daily oral, 60 days", "result": "more than 50%"}, {"measurement": "angiogenesis, number of sprouts per spheroid", "setting": "[5]", "result": "significant reduction of angiogenesis"}, {"measurement": "expression of PDGFR and alpha-SMA downstream of TGF-beta", "setting": "[6]", "result": "able to block the expression of PDGFR and alpha-SMA"}, {"measurement": "PAMPA GI (MR %)", "setting": "[7]", "result": "(46.1) %"}, {"measurement": "Ki", "setting": "[8]", "result": 0.12, "unit": "µM"}, {"measurement": "reduction of tumor weight vs CTR", "setting": "[9]; 50 mg/kg every other day for 30 days, alone", "result": "about 50%"}, {"measurement": "myofibroblast content (alpha-SMA expression) in tumor masses", "setting": "[9]; immunohistochemistry of excised tumors", "result": "reduction of myofibroblast content"}, {"measurement": "Quantity of Compound, BLOOD", "setting": "[10]; 30′", "result": "10.2 ± 4.82 nmol of compound/g of tissue"}, {"measurement": "Quantity of Compound, BLOOD", "setting": "[10]; 4 h", "result": "2.6 ± 1.31 nmol of compound/g of tissue"}, {"measurement": "Quantity of Compound, BLOOD", "setting": "[10]; 8 h", "result": "2.4 ± 0.29 nmol of compound/g of tissue"}, {"measurement": "Quantity of Compound, BLOOD", "setting": "[10]; 24 h", "result": "1.1 ± 0.65 nmol of compound/g of tissue"}, {"measurement": "Quantity of Compound, BRAIN", "setting": "[10]; 15′", "result": "0.3 ± 0.18 nmol of compound/g of tissue"}, {"measurement": "Quantity of Compound, BRAIN", "setting": "[10]; 24 h", "result": "2.3 ± 0.70 nmol of compound/g of tissue"}]}]}
